The numbers were not newly measured in patent US12245592B2, “Encapsulated biocides and biorepellents” (Aerogel ApS, priority 2018, dated 2025), which cites them from elsewhere.

For this data set the following is noted: pure biocide.
With `On1ccccc1=S.On1ccccc1=S.[Cu]` [Copper pyrithione, copper pyrithione], the Biocide density is 1.82 gr/cm^3. `N#C[S][Cu][S]C#N` [Copper thiocyanate]: the Biocide density is 2.84 gr/cm^3.

Regarding `N#Cc1c(-c2ccc(Cl)cc2)[nH]c(C(F)(F)F)c1Br` [Econea, 4-bromo-2-(4-chlorophenyl)-5-(trifluoromethyl)-1H-pyrrole-3-carbonitrile], the Biocide density was 1.71 gr/cm^3.

Take Zinc pyrithione: the Biocide density is recorded as 1.78 gr/cm^3.
